Legend:
wheat callus = assay: Killing curve: callus growth and regeneration under constant selection pressure; format: cell-based, Triticum aestivum
Experimental: To define the sensitivity of wheat tissues during transformation when D-Serine and D-Alanine are present as selection agents regeneration experiments with immature embryos were designed. Immature embryos were immersed in PAWinf medium and subjected to all steps of callus induction, callus maintaining and regeneration in transformation protocol above.
Sensitivity of callus tissue under constant selection pressure were evaluated using range of concentrations: 0.5 mM, 1 mM, 3 mM, 5 mM, 10 mM, 25 mM, 50 mM. Experiments were performed in triplicates. Percentage of embryos forming embryos-genic callus was scored on PAW-4 regeneration medium. At the end of shoots elongation regeneration capacity of the calluses was scored as calluses regenerating shoots and number of shoots per callus.
Range of the tested concentrations 0.5-50 mM D-ser and D-ala are evaluated in replicating regeneration experiments. The effect of selective compounds is estimated during callus growth and shoots formation following transformation procedure on medium with D-serine and D-alanine (Table 4).

wheat immature embryos = assay: Killing curve: in vitro germination of immature embryos and seedling growth; format: in vivo, Triticum aestivum
Experimental: In order to establish effective concentrations of D-serine and D-alanine on inhibiting growth of tissue cultured wheat cells, a bioassay system using immature embryos was applied. Immature embryos 2 mm in length were dissected onto germination medium with the selection agents, and incubated at 27° C. in light. The number of germinated embryos with well-developed shoots and brunched shoots were scored after 14 days.
Immature embryos 2 mm in size were isolated from the sterilized caryopses. The embryos were cultured on PAW-5 hormone free medium for germination in dark. Seedlings growth on D-amino acid selection was observed after 2 weeks. Most of the embryos germinated but the seedlings growth was inhibited when roots emerge and the uptake of the selection compound was direct from the medium. The Lethal Dose (LD 100) for seedlings germination and growth was 1 mM concentration of both D-amino acids tested (Table 6). Seedlings derived from embryos isolated from the immature caryopsis without endosperms were susceptible to the selection in concentration higher than 1 mM (FIG. 8).

wheat in vitro shoots = assay: Killing curve: rooting of in vitro shoots; format: in vivo, Triticum aestivum
From the text: […] The effect of selection agents was observed two and tree weeks later. Number of plantlets with growing roots and green leaves were scored.
In vitro regenerated shoots from media lacking the selection compounds were collected and transferred on medium for rooting (½ MS salts hormone free). Roots formation, growth of the shoots and leaves elongation was scored two and four weeks later after sub culturing of these shoots to the medium supplemented with D-amino acids (Table 5).

[1] = system: wheat variety Canon immature embryos / embryogenic callus; assay: Agrobacterium-mediated transformation with dao1 constructs and selection of transgenic plants; format: cell-based, Triticum aestivum; conditions: pRLM205 (dao1 original), 5 mM selection
Experimental: (§1) Explants were washed with PAW-Inf. medium and immersed in the above-described bacterial suspension for 2 h at 26° C. At the end of infection the explants were placed with scutellum side up on PAW-1 medium. The residual bacterial suspension is removed by pipeting out and air-drying of the infected embryos by opening plates for 15 min on the sterile banch. Plates were sealed with Parafilm and placed in thermostat at 26° C. in the dark for 5-6 days co-cultivation.
(§2) After co-cultivation period the explants were washed with sterile water and 500 mg/L Cefotaxime and filter paper dried before being transferred to PAW-2 callus induction-recovery medium containing 160 mg/l Timentin for 14 days (7 days dark/7 days semi light; 13.2 μmol m^−2s^−1). Explants with embryogenic callus were subculture to PAW-2 callus-proliferation medium containing 160 mg/l Timentin and corresponding selection 5 mM D-serine or 5 mM D-alanine or 3 mg/l bialaphos. In some experiments the selection on D-amino acids was starting on PAW-2 callus induction medium 0, 7, 14 and 21 days after co cultivation. Embryogenic callus was subculture twice on fresh selective medium for callus maintaining and regeneration on PAW-4 medium with corresponding selection. Cultures were maintained at 23° C. on light 60.2 μmol m^−2s^−1. Regenerated shoots were subculture to PAW-5 hormone free medium with corresponding selection (5 mM D-serine or 5 mM D-alanine or 3 mg/l bialaphos) for further growth and rooting. All media used in the transformation experiments were filter sterilized and are listed in above. After analyses transgenic plants were transferred to soil and placed for further growth in greenhouse. 1.4 Molecular and expression studies of the transgenic plants
Freshly isolated immature embryos from Canon were inoculated with Agrobacterium. In all experiments Agrobacterium tumefactions super binary vector system based on LBA4404 (pSB1) was used. The constructs pRLM205 containing the original dao1 gene and pRLM226 carrying modified Daol. Both constructs contain gusINT reporter marker gene (FIGS. 3, I and II). Following co cultivation the explants were transferred on callus induction PAW-2 selection free medium containing 160 mg/l Timentin to inhibit bacterial growth for 14 days. For selection embryogenic callus was transferred to PAW-2 selection medium containing 5 mM D-serine or 5 mM D-alanine respectively. Furthermore calli were sub cultured to fresh corresponding selection PAW-2 medium for maintaining. Embryogenic calli were trans-ferred on PAW-4 selection medium for regeneration 5-6 weeks after transformation. The emerging plantlets were further grown and rooted on PAW-5 hormone free selection medium. Well-developed and rooted on selection putative transgenic regenerants were selected in vitro within. When D-alanine was used as selection compound similar effects in callus growth, shoots regeneration and rooting of transgenic plants or non transgenic escapes selected on D-serine was observed. Both selection agents resulted with 1.1% to 1.2% transformation efficiency and no escape rate (Table 9).

[2] = system: Transgenic T1 dao1 seedlings; assay: Negative selection of transgenic T1 dao1 seedlings; format: in vivo, Triticum aestivum
Experimental: T1 immature embryos were assayed with bioassay for germination of immature embryos on selection. […] Furthermore transgenic T1 seedlings were tested for negative selection using D-isoleucine and D-valine containing medium. Transgenic T1 dao1 seedlings were sensitive to the concentrations range from 10 to 30 mM D-isoleucine and 15-20 mM D-valine (FIG. 11).

[3] = system: wheat variety Canon immature embryos / embryogenic callus; assay: Agrobacterium-mediated transformation with dsdA constructs and selection of transgenic plants; format: cell-based, Triticum aestivum
Experimental: as §1, §2
Freshly isolated immature embryos from Canon were inoculated with Agrobacterium. In all experiments Agrobacterium tumefacience LBA4404 (pSB1/pRLM167) (SEQ ID NO: 11) was used. The pRLM167 is a super binary vector containing p-ZmUBI+I::c-dsdA::t-OCS and p-ZmUBI+I::c-PAT::t-OCS selectable marker genes in expression cassettes (FIG. 1). Following co cultivation the explants were given a chance to recover for 14 days on callus induction selection free medium containing 160 mg/l Timentin to inhibit bacterial growth. Under these conditions 59% to 76% of the embryogenic callus developed over the all surface of immature embryos. Embryogenic callus was split in two and transferred to two the corresponding selection medium containing 5-mM D-serine or 3 mg/l bialaphos. During subsequent growth of callus, regeneration of plantlets, shoots elongation and roots formation the respective selection pressure was maintained in each of the corresponding medium. After 7 weeks of selection 38%-47% of the embryogenic calli regenerated with plants when selected on bialaphos or on D-serine respectively. Further selection of the regenerants was performed during the elongation and rooting of the regenerants for an additional 3 weeks. Intact in vitro transgenic shoots were selected within 10-12 weeks after co cultivation.
Freshly isolated immature embryos from Canon were inoculated with Agrobacterium. In all experiments Agrobacterium tumefacience super binary vector system based on LBA4404 (pSB1) was used. The constructs pRLM179, pRLM166, pRLM151 (FIG. 2. I, II and III) containing dsdA selectable marker gene alone or with a second gene (ahas or gusINT) were used for transformation. The explants were cultured on selection medium right away after co-cultivation with Agrobacterium or were cultivated on callus induction—recovery medium for 7, 14 and 21 days containing only 160 mg/l Timentin for inhibiting bacterial growth. Furthermore calli were sub cultured to fresh selection PAW-2 medium for proliferation. Embryogenic calli were transferred on PAW-4 selection medium for regeneration 5-6 weeks after transformation. The emerging plantlets were further grown and rooted on PAW-5 hormone free selection medium. […]

[4] = construct pRLM167 (dsdA/pat), selection on 5 mM D-serine or 3 mg/l bialaphos

C[C@@H](N)C(=O)O [D-alanine]
Regeneration capacity of the calli reduced (wheat callus; 5 mM): 70%
Regenerated Embryogenic Lines (%) (wheat callus; Bobwhite, 0.5 mM): 85%
Regenerated Embryogenic Lines (%) (wheat callus; Bobwhite, 3 mM): 52%
Regenerated Embryogenic Lines (%) (wheat callus; Bobwhite, 5 mM): 14%
Regenerated Embryogenic Lines (%) (wheat callus; Bobwhite, 10 mM): 4%
Regenerated Embryogenic Lines (%) (wheat callus; Bobwhite, 15 mM): 0%
Regenerated Embryogenic Lines (%) (wheat callus; Bobwhite, 25 mM): 0%
Regenerated Embryogenic Lines (%) (wheat callus; Bobwhite, 50 mM): 0%
Regenerated Embryogenic Lines (%) (wheat callus; Canon, 0.5 mM): 63%
Regenerated Embryogenic Lines (%) (wheat callus; Canon, 3 mM): 44%
Regenerated Embryogenic Lines (%) (wheat callus; Canon, 5 mM): 19%
Regenerated Embryogenic Lines (%) (wheat callus; Canon, 10 mM): 3%
Regenerated Embryogenic Lines (%) (wheat callus; Canon, 15 mM): 0%
Regenerated Embryogenic Lines (%) (wheat callus; Canon, 25 mM): 0%
Regenerated Embryogenic Lines (%) (wheat callus; Canon, 50 mM): 0%
lethal dose (LD 100) for regeneration response of callus (wheat callus; tested in both varieties): 15 mM
In vitro germination, Immature Embryos (%) (wheat immature embryos; Bobwhite, 0.5 mM): 56%
In vitro germination, Immature Embryos (%) (wheat immature embryos; Bobwhite, 1 mM): 0%
In vitro germination, Immature Embryos (%) (wheat immature embryos; Bobwhite, 5 mM): 0%
In vitro germination, Immature Embryos (%) (wheat immature embryos; Bobwhite, 10 mM): 0%
In vitro germination, Immature Embryos (%) (wheat immature embryos; Canon, 0.5 mM): 40%
In vitro germination, Immature Embryos (%) (wheat immature embryos; Canon, 1 mM): 0%
In vitro germination, Immature Embryos (%) (wheat immature embryos; Canon, 5 mM): 0%
In vitro germination, Immature Embryos (%) (wheat immature embryos; Canon, 10 mM): 0%
root formation of non-transgenic shoots (wheat in vitro shoots; 5 mM): not able to form roots
Rooted Shoots (%) (wheat in vitro shoots; Bobwhite, 1 mM): 34%
Rooted Shoots (%) (wheat in vitro shoots; Bobwhite, 3 mM): 13%
Rooted Shoots (%) (wheat in vitro shoots; Bobwhite, 5 mM): 1%
Rooted Shoots (%) (wheat in vitro shoots; Bobwhite, 10 mM): 0%
Rooted Shoots (%) (wheat in vitro shoots; Bobwhite, 15 mM): 0%
Rooted Shoots (%) (wheat in vitro shoots; Bobwhite, 25 mM): 0%
Rooted Shoots (%) (wheat in vitro shoots; Canon, 1 mM): 36%
Rooted Shoots (%) (wheat in vitro shoots; Canon, 3 mM): 11%
Rooted Shoots (%) (wheat in vitro shoots; Canon, 5 mM): 1%
Rooted Shoots (%) (wheat in vitro shoots; Canon, 10 mM): 0%
Rooted Shoots (%) (wheat in vitro shoots; Canon, 15 mM): 0%
Rooted Shoots (%) (wheat in vitro shoots; Canon, 25 mM): 0%
ER (%) Escape Rate [1]: 0%
TE (%) Transformation Efficiency [1]: 1.27%

CC(C)[C@@H](N)C(=O)O [D-valine]
concentration range to which seedlings were sensitive (negative selection) [2]: 15 to 20 mM

C[C@H](NC(=O)[C@H](C)NC(=O)[C@@H](N)CCP(C)(=O)O)C(=O)O [bialaphos]
ER Escape Rate (% of non-transgenic regenerants out of all selected plants) [3, 4]: 59%
TE Transformation Efficiency (% of transgenic plants out of the explants) [3, 4]: 2.1%
embryogenic calli regenerated with plants ([3]; pRLM167, after 7 weeks of selection, 5 mM D-serine or 3 mg/l bialaphos): 38%
